Structures are written as SMILES.

Drawing on patent US10150760B2, “Compounds for use in preparing heterocyclic triazole agonists of the APJ receptor” (AMGEN INC., priority 2016, dated 2018), this text covers EC50 for 15 compounds.

In this assay the target is human APJ receptor (Homo sapiens (Human), UniProt P35414). The experiment in a line: [35S]GTPγS binding assay on membranes from CHO cells stably expressing human APJ receptor. The assay is classed as biochemical. The settings on record: read-out: Activity hAPJ SPA EC50 IP. An outline of the steps: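 Agonist-driven [35S]GTPγS (0.2 nM) binding was measured over 90 min at room temperature on human APJ-expressing CHO membranes with bead capture, in buffer containing 3 μM GDP, 200 mM NaCl and 5 mM MgCl2 (pH 7.5). Excess unlabelled GTPγS (100 μM) gave nonspecific signal; EC50 from non-linear fits.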
On the technique in general: GTPγS resists hydrolysis and so accumulates on activated G proteins.

Sequence of human APJ receptor (P35414 whole entry): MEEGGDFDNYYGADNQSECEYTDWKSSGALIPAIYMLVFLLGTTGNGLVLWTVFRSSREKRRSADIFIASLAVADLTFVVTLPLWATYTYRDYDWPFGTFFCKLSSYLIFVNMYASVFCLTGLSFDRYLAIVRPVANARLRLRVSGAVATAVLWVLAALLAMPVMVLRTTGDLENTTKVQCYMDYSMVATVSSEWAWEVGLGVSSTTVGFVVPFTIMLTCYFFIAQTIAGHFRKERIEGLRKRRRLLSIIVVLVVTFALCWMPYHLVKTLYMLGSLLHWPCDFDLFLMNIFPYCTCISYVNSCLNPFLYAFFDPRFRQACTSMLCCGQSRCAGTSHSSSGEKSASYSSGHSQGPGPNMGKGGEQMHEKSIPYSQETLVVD

Broadly, the EC50 is the concentration needed to bring the measured effect to its halfway point. For `COc1cccc(OC)c1-n1c(NS(=O)(=O)[C@@H](C)[C@H](C)c2ncc(C)cn2)nnc1[C@@H]1CCCN(C)C1` (single isomer, unassigned) [Example 270.0, (2S,3R)-N-(4-(2,6-dimethoxyphenyl)-5-((R)-1-methylpiperidin-3-yl)-4H-1,2,4-triazol-3-yl)-3-(5-methylpyrimidin-2-yl)butane-2-sulfonamide or (2S,3R)-N-(4-(2,6-dimethoxyphenyl)-5-((S)-1-methylpiperidin-3-yl)-4H-1,2,4-triazol-3-yl)-3-(5-methylpyrimidin-2-yl)butane-2-sulfonamide], the EC50 came out at 410 nM.
`CO[C@H](c1ncc(Cl)cn1)[C@H](C)S(=O)(=O)Nc1nnc([C@@H]2COCCO2)n1C1(C)CC1` (single isomer, unassigned) [Example 271.0, (1R,2S)-N-(5-((R)-1,4-dioxan-2-yl)-4-(1-methylcyclopropyl)-4H-1,2,4-triazol-3-yl)-1-(5-chloropyrimidin-2-yl)-1-methoxypropane-2-sulfonamide or (1R,2S)-N-(5-((S)-1,4-dioxan-2-yl)-4-(1-methylcyclopropyl)-4H-1,2,4-triazol-3-yl)-1-(5-chloropyrimidin-2-yl)-1-methoxypropane-2-sulfonamide]: the EC50 stood at 140 nM.
Under `CO[C@H](c1ncc(Cl)cn1)[C@H](C)S(=O)(=O)Nc1nnc([C@@H]2COCCO2)n1C1(C)CC1` (single isomer, unassigned) [Example 272.0, (1R,2S)-N-(5-((R)-1,4-dioxan-2-yl)-4-(1-methylcyclopropyl)-4H-1,2,4-triazol-3-yl)-1-(5-chloropyrimidin-2-yl)-1-methoxypropane-2-sulfonamide or (1R,2S)-N-(5-((S)-1,4-dioxan-2-yl)-4-(1-methylcyclopropyl)-4H-1,2,4-triazol-3-yl)-1-(5-chloropyrimidin-2-yl)-1-methoxypropane-2-sulfonamide] stands 1010 nM; under `COc1cccc(OC)c1-n1c(NS(=O)(=O)[C@@H](C)[C@H](C)c2ncc(F)cn2)nnc1[C@H]1CCOC1` (single isomer, unassigned) [Example 273.0, (2S,3R)-N-(4-(2,6-dimethoxyphenyl)-5-((R)-tetrahydrofuran-3-yl)-4H-1,2,4-triazol-3-yl)-3-(5-fluoropyrimidin-2-yl)butane-2-sulfonamide or (2S,3R)-N-(4-(2,6-dimethoxyphenyl)-5-((S)-tetrahydrofuran-3-yl)-4H-1,2,4-triazol-3-yl)-3-(5-fluoropyrimidin-2-yl)butane-2-sulfonamide], 29 nM.
In the case of `COc1cccc(OC)c1-n1c(NS(=O)(=O)[C@@H](C)[C@H](C)c2ncc(F)cn2)nnc1[C@H]1CCOC1` (single isomer, unassigned) [Example 274.0, (2S,3R)-N-(4-(2,6-dimethoxyphenyl)-5-((R)-tetrahydrofuran-3-yl)-4H-1,2,4-triazol-3-yl)-3-(5-fluoropyrimidin-2-yl)butane-2-sulfonamide or (2S,3R)-N-(4-(2,6-dimethoxyphenyl)-5-((S)-tetrahydrofuran-3-yl)-4H-1,2,4-triazol-3-yl)-3-(5-fluoropyrimidin-2-yl)butane-2-sulfonamide] it was 78 nM.
Under `COc1cccc(OC)c1-n1c(NS(=O)(=O)[C@@H](C)[C@H](C)c2ncc(F)cn2)nnc1[C@@H]1COCCO1` (single isomer, unassigned) [Example 276.0, (2S,3R)-N-(4-(2,6-dimethoxyphenyl)-5-((R)-1,4-dioxan-2-yl)-4H-1,2,4-triazol-3-yl)-3-(5-fluoropyrimidin-2-yl)butane-2-sulfonamide or (2S,3R)-N-(4-(2,6-dimethoxyphenyl)-5-((S)-1,4-dioxan-2-yl)-4H-1,2,4-triazol-3-yl)-3-(5-fluoropyrimidin-2-yl)butane-2-sulfonamide] stands 33 nM; under `COc1ncnc(OC)c1-n1c(NS(=O)(=O)[C@@H](C)[C@H](C)c2ncc(F)cn2)nnc1[C@@H]1COCCO1` (single isomer, unassigned) [Example 277.0, (2S,3R)-N-(4-(4,6-dimethoxypyrimidin-5-yl)-5-((R)-1,4-dioxan-2-yl)-4H-1,2,4-triazol-3-yl)-3-(5-fluoropyrimidin-2-yl)butane-2-sulfonamide or (2S,3R)-N-(4-(4,6-dimethoxypyrimidin-5-yl)-5-((S)-1,4-dioxan-2-yl)-4H-1,2,4-triazol-3-yl)-3-(5-fluoropyrimidin-2-yl)butane-2-sulfonamide], 23 nM.
Regarding `COc1ncnc(OC)c1-n1c(NS(=O)(=O)[C@@H](C)[C@H](C)c2ncc(F)cn2)nnc1[C@@H]1COCCO1` (single isomer, unassigned) [Example 278.0, (2S,3R)-N-(4-(4,6-dimethoxypyrimidin-5-yl)-5-((R)-1,4-dioxan-2-yl)-4H-1,2,4-triazol-3-yl)-3-(5-fluoropyrimidin-2-yl)butane-2-sulfonamide or (2S,3R)-N-(4-(4,6-dimethoxypyrimidin-5-yl)-5-((S)-1,4-dioxan-2-yl)-4H-1,2,4-triazol-3-yl)-3-(5-fluoropyrimidin-2-yl)butane-2-sulfonamide], the EC50 worked out at 510 nM.
In the case of `COc1ncnc(OC)c1-n1c(NS(=O)(=O)[C@@H](C)[C@@H](OC(C)C)c2ncc(Cl)cn2)nnc1[C@H]1CCC(C)(C)O1` (single isomer, unassigned) [Example 279.0, (1S,2S)-1-(5-chloropyrimidin-2-yl)-N-(4-(4,6-dimethoxypyrimidin-5-yl)-5-((R)-5,5-dimethyltetrahydrofuran-2-yl)-4H-1,2,4-triazol-3-yl)-1-isopropoxypropane-2-sulfonamide or (1S,2S)-1-(5-chloropyrimidin-2-yl)-N-(4-(4,6-dimethoxypyrimidin-5-yl)-5-((S)-5,5-dimethyltetrahydrofuran-2-yl)-4H-1,2,4-triazol-3-yl)-1-isopropoxypropane-2-sulfonamide] it was 0.68 nM.
As to `COc1ncnc(OC)c1-n1c(NS(=O)(=O)[C@@H](C)[C@@H](OC(C)C)c2ncc(Cl)cn2)nnc1[C@H]1CCC(C)(C)O1` (single isomer, unassigned) [Example 280.0, (1S,2S)-1-(5-chloropyrimidin-2-yl)-N-(4-(4,6-dimethoxypyrimidin-5-yl)-5-((R)-5,5-dimethyltetrahydrofuran-2-yl)-4H-1,2,4-triazol-3-yl)-1-isopropoxypropane-2-sulfonamide or (1S,2S)-1-(5-chloropyrimidin-2-yl)-N-(4-(4,6-dimethoxypyrimidin-5-yl)-5-((S)-5,5-dimethyltetrahydrofuran-2-yl)-4H-1,2,4-triazol-3-yl)-1-isopropoxypropane-2-sulfonamide], the EC50 amounted to 7.5 nM.
In the case of `COc1cccc(OC)c1-n1c(NS(=O)(=O)[C@@H](C)[C@@H](OC(C)C)c2ncc(Cl)cn2)nnc1[C@H]1CCOC1` (single isomer, unassigned) [Example 281.0, (1S,2S)-1-(5-chloropyrimidin-2-yl)-N-(4-(2,6-dimethoxyphenyl)-5-((R)-tetrahydrofuran-3-yl)-4H-1,2,4-triazol-3-yl)-1-isopropoxypropane-2-sulfonamide or (1S,25)-1-(5-chloropyrimidin-2-yl)-N-(4-(2,6-dimethoxyphenyl)-5-((S)-tetrahydrofuran-3-yl)-4H-1,2,4-triazol-3-yl)-1-isopropoxypropane-2-sulfonamide] it was 0.11 nM; in that of `COc1cccc(OC)c1-n1c(NS(=O)(=O)[C@@H](C)[C@@H](OC(C)C)c2ncc(Cl)cn2)nnc1[C@H]1CCOC1` (single isomer, unassigned) [Example 282.0, (1S,2S)-1-(5-chloropyrimidin-2-yl)-N-(4-(2,6-dimethoxyphenyl)-5-((R)-tetrahydrofuran-3-yl)-4H-1,2,4-triazol-3-yl)-1-isopropoxypropane-2-sulfonamide or (1S,25)-1-(5-chloropyrimidin-2-yl)-N-(4-(2,6-dimethoxyphenyl)-5-((S)-tetrahydrofuran-3-yl)-4H-1,2,4-triazol-3-yl)-1-isopropoxypropane-2-sulfonamide], 1.6 nM.
In the case of `COc1cccc(OC)c1-n1c(NS(=O)(=O)[C@@H](C)[C@@H](OC(C)C)c2ncc(Cl)cn2)nnc1[C@@H]1COCCO1` (single isomer, unassigned) [Example 283.0, (1S,2S)-1-(5-chloropyrimidin-2-yl)-N-(4-(2,6-dimethoxyphenyl)-5-((R)-1,4-dioxan-2-yl)-4H-1,2,4-triazol-3-yl)-1-isopropoxypropane-2-sulfonamide or (1S,2S)-1-(5-chloropyrimidin-2-yl)-N-(4-(2,6-dimethoxyphenyl)-5-((S)-1,4-dioxan-2-yl)-4H-1,2,4-triazol-3-yl)-1-isopropoxypropane-2-sulfonamide] it was 0.63 nM; in that of `COCC1(n2c(NS(=O)(=O)[C@@H](C)[C@H](OC)c3ncc(Cl)cn3)nnc2[C@H]2CC[C@@H](C)O2)CC1` (single isomer, unassigned) [Example 285.0, (1R,2S)-1-(5-chloropyrimidin-2-yl)-1-methoxy-N-(4-(1-(methoxymethyl)cyclopropyl)-5-((2S,5S)-5-methyltetrahydrofuran-2-yl)-4H-1,2,4-triazol-3-yl)propane-2-sulfonamide or (1R,2S)-1-(5-chloropyrimidin-2-yl)-1-methoxy-N-(4-(1-(methoxymethyl)cyclopropyl)-5-((2R,5R)-5-methyltetrahydrofuran-2-yl)-4H-1,2,4-triazol-3-yl)propane-2-sulfonamide], 64 nM; in that of `COCC1(n2c(NS(=O)(=O)[C@@H](C)[C@H](OC)c3ncc(Cl)cn3)nnc2[C@H]2CC[C@@H](C)O2)CC1` (single isomer, unassigned) [Example 286.0, (1R,2S)-1-(5-chloropyrimidin-2-yl)-1-methoxy-N-(4-(1-(methoxymethyl)cyclopropyl)-5-((2S,5S)-5-methyltetrahydrofuran-2-yl)-4H-1,2,4-triazol-3-yl)propane-2-sulfonamide or (1R,2S)-1-(5-chloropyrimidin-2-yl)-1-methoxy-N-(4-(1-(methoxymethyl)cyclopropyl)-5-((2R,5R)-5-methyltetrahydrofuran-2-yl)-4H-1,2,4-triazol-3-yl)propane-2-sulfonamide], 1.4 nM.
